{
  "source": "paper PMC3497018",
  "about": "“Anti-Human Rhinoviral Activity of Polybromocatechol Compounds Isolated from the Rhodophyta, Neorhodomela aculeata” (Marine Drugs, 2012)",
  "key": {"HRV2 [1]": {"test_system": "HRV2", "experiment": "Antiviral activity, SRB method using CPE reduction, HRV2-infected HeLa cells", "format": "cell-based, human rhinovirus", "settings": "for antiviral activity against HRV2 (in words): HeLa cells; for IC50: Human rhinovirus sp., HRV2, HeLa, HRV2 in HeLa cells, mean ± S.D., read-out: IC50, concentration required to inhibit virus-induced cytopathic effect (CPE) by 50%; for TI, therapeutic index = CC50/IC50: HRV2", "description": "(§1) HRV 2 and 3 were provided by the ATCC (American Type Culture Collection, Manassas, VA, USA) and were propagated in human epitheloid carcinoma cervix (HeLa) cells at 32 °C. HeLa cells were maintained in minimal essential medium (MEM) supplemented with 10% fetal bovine serum (FBS) and 0.01% antibiotic-antimycotic.\n(§2) Assays of antiviral activity and cytotoxicity were evaluated by the SRB method using CPE reduction, recently reported. […] Next day, medium was removed and then washed with 1× phosphate buffered saline (PBS). Infectivity of virus stock was determined by the SRB method using cytopathic effect (CPE) reduction and was determined as infectivity of the virus by SRB ID50 (50% infective dose). […] The antiviral activity of each test material was determined with a 10-fold diluted concentration ranging from 0.1 to 100 μg/mL. Three wells were used as virus controls (virus-infected non-drug-treated cells) while three wells were used as cell controls (non-infected non-drug-treated cells). The culture plates were incubated at 37 °C in 5% CO2 for 2 days. After washing 1 times with 1× PBS, 100 μL of cold (−20 °C) 70% acetone were added to each well and left for 30 min at −20 °C. 70% acetone was removed and 96-well plates were left at dry oven for 30 min. 100 μL of 0.4% (w/v) SRB in 1% acetic acid solution were added to each well and left at room temperature for 30 min. Unbound SRB was removed and the plates were washed 5 times with 1% acetic acid before oven drying and were then left in a dry oven for 1 day. Bound SRB was solubilized with 100 μL of 10 mM unbuffered tris-base solution and plates were left on a table for 30 min. The absorbance was read at 540 nm by using a VERSAmax microplate reader (Molecular Devices, Palo Alto, CA, USA) with a reference absorbance at 620 nm. To calculate the IC50 values, the results were transformed to percentage of controls and the IC50 values were graphically obtained from the dose-response curves. The percent protection achieved by the test compound in HRV2 or HRV3-infected cells was calculated by the following formula: […]\n(§3) where (ODt)virus is the optical density measured with a given concentration of the test compound in virus-infected cells; (ODc)virus is the optical density measured for the control untreated virus-infected cells; and (ODc)mock is the optical density measured for control untreated mock-infected cells. The concentration achieving 50% protection according to the formula above was defined as the 50% inhibitory concentration (IC50). The therapeutic index was defined as CC50/IC50. […] Next day, medium was removed and the 96-well plates were replaced with media containing the serially diluted compounds and the cells were further incubated for 48 h. The culture medium was removed and washed with 1× PBS. The next step was conducted by antiviral activity assay above described. To calculate the CC50 values, the results were transformed to percentage of controls and the CC50 values were graphically obtained from the dose-response curves. Ribavirin was used as positive, and dimethyl sulfoxide (DMSO) was used as negative control."}, "HRV3 [2]": {"test_system": "HRV3", "experiment": "Antiviral activity, SRB method using CPE reduction, HRV3-infected HeLa cells", "format": "cell-based, human rhinovirus", "settings": "for antiviral activity against HRV3 (in words): HeLa cells; for IC50: Human rhinovirus sp., HRV3, HeLa, HRV3 in HeLa cells, mean ± S.D., ND = maximum inhibition rate under 50%, read-out: IC50, concentration required to inhibit virus-induced cytopathic effect (CPE) by 50%", "description": "as §1, §2, §3"}, "HRV2 [3]": {"test_system": "HRV2", "experiment": "Microscopic observation of HRV2-induced CPE in HeLa cells", "format": "cell-based, human rhinovirus", "settings": "HRV2-infected HeLa cells, 20 μg/mL, 32 °C, 2 days", "description": "(§4) After a 2-day infection of HeLa cells with HRV2 and HRV3, the effect of compound 1 and compound 3 on HRV-induced cytopathic effect (CPE) investigated.\n(§5) Figure 3 The effect of compound 1 or compound 3 on HRV2 (left group; I) and HRV 3 (right group; II)-induced CPE. The virus-infected cells were treated with compound 1 or compound 3 of 20 μg/mL. After incubation at 32 °C in 5% of CO2 for 2 days, the cell morphology was photographed under a microscope.\n(§6) Briefly, HeLa cells were seeded onto a 96-well culture plate at a concentration of 2 × 10^4 cells per well. The next day, the medium was removed and washed with PBS. Then, 0.09 mL of diluted virus suspension and 0.01 mL of medium supplemented with 20 mM MgCl2 containing compound 1 or compound 3 of 20 μg/mL were added. After incubation at 32 °C in 5% CO2 for 2 days, the morphology of cells was observed under microscope of 32 × 10 magnifications (St Ernst-Leitz, Wetzlar, Germany), and images were recorded."}, "[4]": {"experiment": "Cytotoxicity, SRB method, non-infected HeLa cells, 48 h", "format": "cell-based, human", "settings": "human, non-infected HeLa cells, Table 4, read-out: CC50, concentration required to reduce cell growth by 50%", "description": "as §2, §3"}, "HRV3 [5]": {"test_system": "HRV3", "experiment": "Microscopic observation of HRV3-induced CPE in HeLa cells", "format": "cell-based, human rhinovirus", "settings": "HRV3-infected HeLa cells, 20 μg/mL, 32 °C, 2 days", "description": "as §4, §5, §6"}, "HeLa cells": {"test_system": "HeLa cells", "experiment": "Cytotoxicity, SRB method, non-infected HeLa cells, 48 h", "format": "cell-based, human", "settings": "Table 2, column under HRV3", "description": "as §2, §3"}},
  "note": "Like-named read-outs stand apart in the source and are kept apart here.",
  "data": [
    {"molecule": "O=Cc1cc(O)c(O)c(Br)c1Br", "note": "[Compound 2, 2,3-Dibromo-4,5-dihydroxybenzaldehyde]", "values": [
      {"measurement": "antiviral activity against HRV2 (in words)", "setting": "HRV2 [1]", "result": "no antiviral effect"},
      {"measurement": "antiviral activity against HRV3 (in words)", "setting": "HRV3 [2]", "result": "no antiviral effect"}
    ]},
    {"molecule": "OCc1cc(O)c(O)c(Br)c1Br", "note": "[Compound 1, 2,3-Dibromo-4,5-dihydroxybenzyl alcohol]", "values": [
      {"measurement": "effect on HRV2-induced visible CPE", "setting": "HRV2 [3]", "result": "inhibited the formation of a visible CPE"},
      {"measurement": "IC50", "setting": "HRV2 [1]; Table 4", "result": "2.5 ± 0.66", "unit": "µg/mL"},
      {"measurement": "TI, therapeutic index = CC50/IC50", "setting": "HRV2 [1]; Table 4", "result": 8.00},
      {"measurement": "CC50 at 48 h", "setting": "[4]", "result": "> 20", "unit": "µg/mL"},
      {"measurement": "antiviral activity against HRV3 (in words)", "setting": "HRV3 [2]", "result": "did not show anti-HRV3 activity"}
    ]},
    {"molecule": "Oc1cc(Cc2cc(O)c(O)c(Br)c2Br)c(Br)c(Br)c1O", "note": "[Compound 6, 2,2′,3,3′-Tetrabromo-4,4′,5,5′-tetrahydroxydiphenylmethane]", "values": [
      {"measurement": "antiviral activity against HRV2 (in words)", "setting": "HRV2 [1]", "result": "no antiviral effect"},
      {"measurement": "antiviral activity against HRV3 (in words)", "setting": "HRV3 [2]", "result": "no antiviral effect"}
    ]},
    {"molecule": "COCc1cc(O)c(O)c(Br)c1Br", "note": "[Compound 4, 2,3-Dibromo-4,5-dihydroxybenzyl methyl ether]", "values": [
      {"measurement": "antiviral activity against HRV2 (in words)", "setting": "HRV2 [1]", "result": "no antiviral effect"},
      {"measurement": "antiviral activity against HRV3 (in words)", "setting": "HRV3 [2]", "result": "no antiviral effect"}
    ]},
    {"molecule": "COCc1cc(O)c(O)c(Br)c1Cc1cc(O)c(O)c(Br)c1Br", "note": "[Compound 3, 2,2′,3-Tribromo-3′,4,4′,5-tetrahydroxy-6′-methoxymethyldiphenylmethane]", "values": [
      {"measurement": "effect on HRV3-induced visible CPE", "setting": "HRV3 [5]", "result": "inhibited the formation of a visible CPE"},
      {"measurement": "effect on HRV2-induced visible CPE", "setting": "HRV2 [3]", "result": "inhibited the formation of a visible CPE"},
      {"measurement": "IC50", "setting": "HRV2 [1]; Table 4", "result": "7.11 ± 0.64", "unit": "µg/mL"},
      {"measurement": "TI, therapeutic index = CC50/IC50", "setting": "HRV2 [1]; Table 4", "result": 2.81},
      {"measurement": "CC50 at 48 h", "setting": "[4]", "result": "> 20", "unit": "µg/mL"},
      {"measurement": "IC50", "setting": "HRV3 [2]; Table 4", "result": "4.69 ± 0.44", "unit": "µg/mL"},
      {"measurement": "TI, therapeutic index = CC50/IC50", "setting": "HRV3 [2]; Table 4, HRV3", "result": 4.26}
    ]},
    {"molecule": "COCc1cc(Br)c(O)c(O)c1Br", "note": "[Compound 5, 2,5-Dibromo-3,4-dihydroxy-benzyl methyl ether]", "values": [
      {"measurement": "antiviral activity against HRV2 (in words)", "setting": "HRV2 [1]", "result": "no antiviral effect"},
      {"measurement": "antiviral activity against HRV3 (in words)", "setting": "HRV3 [2]", "result": "no antiviral effect"}
    ]},
    {"molecule": "NC(=O)c1ncn([C@@H]2O[C@H](CO)[C@@H](O)[C@H]2O)n1", "note": "[Ribavirin, reference compound]", "values": [
      {"measurement": "effect on HRV3-induced visible CPE", "setting": "HRV3 [5]", "result": "prevented a CPE"},
      {"measurement": "effect on HRV2-induced visible CPE", "setting": "HRV2 [3]", "result": "prevented a CPE"},
      {"measurement": "IC50", "setting": "HRV2 [1]; Table 2, ND = maximum inhibition rate under 50%", "result": "17.1 ± 1.48", "unit": "µg/mL"},
      {"measurement": "IC50", "setting": "HRV2 [1]; Table 4", "result": "2.15 ± 0.51", "unit": "µg/mL"},
      {"measurement": "CC50 at 48 h", "setting": "[4]", "result": "> 20", "unit": "µg/mL"},
      {"measurement": "CC50, concentration required to reduce cell growth by 50%", "setting": "HeLa cells", "result": ">20", "unit": "µg/mL"},
      {"measurement": "IC50", "setting": "HRV3 [2]; Table 2", "result": "14.2 ± 2.2", "unit": "µg/mL"},
      {"measurement": "IC50", "setting": "HRV3 [2]; Table 4", "result": "5.09 ± 0.6", "unit": "µg/mL"}
    ]}
  ]
}
